# Test results taken from US20220031680A1, “Donecopride As Neuroprotective Agent In the Treatment of Neurodegenerative Diseases” (priority 2018, published 2022).
# Marks after values point to notes of the source that are not given here.
# Key:
# Format in all cases: in vivo, mouse
# Aβ40 = Aβ40 levels in brain extracts of 5×FAD mice (ELISA); details: brain extract; 1 mg/kg i.p. twice a week for two months, 2 to 4 months of age
# Experimental: (§1) Animal experiments were carried out in accordance with the Directive by the Council of the European Communities of Nov. 24, 1986 (86/609/EEC). All efforts were made to minimize animal suffering and to reduce the number of mice used. The generation of 5×FAD mice was described in Oakley et al. (2006) J. Neurosci. 26:10129-10140. These transgenic mice overexpress both human APP (695) harboring the Swedish (K670N, M671L), Florida (1716V) and London (V7171) familial AD (FAD) mutations and human Presenilin 1 (PS1) harboring the two FAD mutations M146L and L286V. Expression of both transgenes is regulated by neuronal-specific elements of the mouse Thy1 promoter. The 5×FAD strain (B6/SJL genetic background) was maintained by crossing hemizygous transgenic mice with B6/SJL F1 breeders. The 5×FAD strain (C57BL/6J genetic background) was maintained by crossing hemizygous transgenic mice with C57BL/6J F1 breeders. All animals were genotyped by PCR using tail genomic DNA. Transgenic and WT mice were bred in our animal facility, had access to food and water ad libitum and were housed under a 12 h light-dark cycle at 22-24° C. Female 5×FAD mice were used in this study. For each experiment, the age of mice is indicated in months (with a two-week range).
# (§2) Compounds were resuspended in DMSO (37.5 μg/μl, stored at −20° C.) and freshly diluted 1:250 in 0.9% NaCl prior administration. Vehicle solution (0.9% NaCl, 0.4% DMSO) was used as control.
# (§3) 5×FAD mice received chronic treatments with drugs or vehicle according to 2 different protocols. In each experiment, drugs or vehicle solution were administered i.p. twice a week (1 mg/kg). In “Protocol 1”, mice (n=6-7 mice per group) were treated with compounds for two months, from 2 to 4 months of age. In “Protocol 2”, mice (n=7) were treated with compounds for three months, from 1 month to 4 months of age. At the end of each protocol, mice were anesthetized with a mixture of 100 mg/kg ketamine and 10 mg/kg xylazine in saline solution and perfused transcardially with PBS. Brains were quickly isolated on ice, the olfactory bulbs and cerebellum removed and the two hemispheres divided. […]
# (§4) ELISA kits from IBL International (Hamburg, Germany) for the dosage of Aβ40 (human amyloid β (1-40) assay kit, #27713) or Aβ42 (human amyloid β (1-42) assay kit, #27719) were used according to the manufacturer's instructions. Reactions were read at 620 nm and 450 nm using an Infinite 2000 luminescence counter. The obtained values were normalized to the protein concentration of each sample, measured using a BCA protein assay (Sigma-Aldrich). […]
# (§5) Aβ40 and Aβ42 were quantified from brain extract in soluble and insoluble fractions. […]
# Aβ42 [1] = assay: Aβ42 levels in brain extracts of 5×FAD mice (ELISA); details: brain extract; 1 mg/kg i.p. twice a week for two months, 2 to 4 months of age
# Experimental: as §1, §2, §3, §4, §5
# 5×FAD mice = assay: Novel object recognition test in 5×FAD mice; details: 1 mg/kg twice a week for 3 months; 24 h inter-session interval
# Experimental: as §1, §2
# 5×FAD mice received chronic treatments with drugs or vehicle according to 2 different protocols. In each experiment, drugs or vehicle solution were administered i.p. twice a week (1 mg/kg). […]
# The cognitive performance of mice was tested using the novel object recognition (NOR) test (Bevins and Besheer (2006) Nat. Protoc. 1:1306-1311). […] The whole experiment was video-recorded and object exploration [time spent by the mouse nose in contact with the object or by sniffing it at a distance s 1 cm] was blindly measured. […] A discrimination index was also calculated ([novel−familiar]/[familiar+novel]). […]
# Aβ42 [2] = assay: Aβ42 concentration in cerebrospinal fluid of 5×FAD mice; details: 1 mg/kg twice a week for 3 months; compared to controls
# Experimental: 5×FAD mice received chronic treatments with drugs or vehicle according to 2 different protocols. In each experiment, drugs or vehicle solution were administered i.p. twice a week (1 mg/kg). In “Protocol 1”, mice (n=6-7 mice per group) were treated with compounds for two months, from 2 to 4 months of age. In “Protocol 2”, mice (n=7) were treated with compounds for three months, from 1 month to 4 months of age. At the end of each protocol, mice were anesthetized with a mixture of 100 mg/kg ketamine and 10 mg/kg xylazine in saline solution and perfused transcardially with PBS. Brains were quickly isolated on ice, the olfactory bulbs and cerebellum removed and the two hemispheres divided. One hemisphere was frozen on dry ice and stored at −80° C. for biochemical analysis, while the other was post-fixed in 4% PFA for immunohistochemistry (IHC).
# Mice were anesthetized and mounted onto a stereotaxic instrument. The neck skin was cut and subcutaneous tissue and muscles separated with the help of micro-retractors (Fine Science Tools, Heidelberg, Germany). Mice were then laid down so that the head formed an angle of about 135° with the body (Liu and Duff (2008) J. Vis. Exp. 10:960). A capillary tube (Borosilicate glass, B100-75-10, Sutter Instruments, Novato, Calif., USA) was used to punch the dura mater of the cisterna magna. CSF was collected by capillary action and transferred to 0.5 mL microtubes, immediately frozen on dry ice and stored at −80° C. until use. Once thawed, samples were heated at 60° C. for 5 min as described in the international application WO 2008/009868 and analyzed without further freezing-thawing cycles.
# as §4
SMILES,"Aβ40, insoluble fraction (% of controls) (Aβ40)","Aβ40, soluble fraction (% of controls) (Aβ40)","Aβ42, insoluble fraction (% of controls) (Aβ42 [1])","Aβ42, soluble fraction (% of controls) (Aβ42 [1])","recognition memory, exploration of novel vs familiar object (NOR) (5×FAD mice)",Aβ42 concentration in cerebrospinal fluid (CSF) (Aβ42 [2])
COc1cc(N)c(Cl)cc1C(=O)CCC1CCN(CC2CCCCC2)CC1 [Donecopride],79.97 % of controls,110.18 % of controls,67.85* % of controls,65.93* % of controls,prevent memory alteration,not significantly different
COc1cc(N)c(F)cc1C(=O)CCC1CCN(CC2CCCCC2)CC1 [Flucopride],97.16 % of controls,110.51 % of controls,73.16 % of controls,30.19**** % of controls,prevent memory alteration,not significantly different
